US20120301895A1, “METHODS OF MODULATING BINDING OF SON OF SEVENLESS TO PHOSPHATIDIC ACID AND IDENTIFYING COMPOUNDS THAT MODULATE SUCH BINDING” (THE RESEARCH FOUNDATION OF STATE UNIVERSITY OF NEW YORK, priority 2007, published 2012)

What was measured:
PLD2 = biological target: T1, PLD2 (Homo sapiens, UniProt O14939); test: In vitro PLD activity, exogenous substrate assay, PLD2; format: biochemical; conditions: purified recombinant PLD2, 30 min at 37° C.
T1 construct: made in house
Method: In FIG. 13A, MDA-MB-231 cells were plated as in FIGS. 12A-C and then shifted to either 10% serum or 0.5% serum overnight as indicated. Honokiol (20 μM) or control ethanol was then added for 4 hr as indicated, at which time the cells were harvested and the levels of PBt were determined as in FIGS. 12A-C. The experiment shown is representative of at least three independent experiments. In FIG. 13B, the effect of honokiol on the activity of PLD isoforms was measured using exogenous substrate assay as described previously (Henage et al., “Kinetic Analysis of a Mammalian Phospholipase D: Allosteric Modulation by Monomeric GTPases, Protein Kinase C, and Polyphosphoinositides,” J. Biol. Chem. 281:3408-17 (2006), which is hereby incorporated by reference in its entirety). […] The amount of background was determined and subtracted using a bovine serum albumin standard. […]
For in vivo PLD activity, cells were plated in 60 mm culture dishes in DMEM with 10% serum at a density that would allow them to grow to about 80% confluence after 2 days, then cells were shifted to DMEM containing 0.5% or 10% serum as indicated in the figure legends overnight. […] Briefly, PLD activity was measured by the release of [methyl-^3H] choline from [choline-methyl-^3H]dipalmitoyl-phosphatidylcholine. […]

HIF2α = HIF2α expression in 786-O cells (Western blot); format: cell-based, human; conditions: 0.5% serum, 4 hr, honokiol 20 μM, 1-BtOH 0.8%
Method: In FIG. 15B, 786-O cells were plated and then shifted to media containing 0.5% serum 24 hr later. 18 hr later, the cells were treated with 1-Bt0H (0.8%), honokiol (Hon) (20 μM), and t-BtOH (0.8%) as indicated. Cell lysates were prepared 4 hr later and examined for HIF2α and actin expression by Western lot analysis. The experiment shown is representative of two independent experiments.
Extraction of proteins from cultured cells and Western blot analysis of extracted proteins was performed using the ECL system (Amersham) as described previously (Chen et al., “Alternative Phospholipase D/mTOR Survival Signal in Human Breast Cancer Cells,” Oncogene 24:672-9 (2005), which is hereby incorporated by reference in its entirety).
The effect of honokiol on HIF2α expression was examined in these cells.

T1 sequence (O14939 whole entry): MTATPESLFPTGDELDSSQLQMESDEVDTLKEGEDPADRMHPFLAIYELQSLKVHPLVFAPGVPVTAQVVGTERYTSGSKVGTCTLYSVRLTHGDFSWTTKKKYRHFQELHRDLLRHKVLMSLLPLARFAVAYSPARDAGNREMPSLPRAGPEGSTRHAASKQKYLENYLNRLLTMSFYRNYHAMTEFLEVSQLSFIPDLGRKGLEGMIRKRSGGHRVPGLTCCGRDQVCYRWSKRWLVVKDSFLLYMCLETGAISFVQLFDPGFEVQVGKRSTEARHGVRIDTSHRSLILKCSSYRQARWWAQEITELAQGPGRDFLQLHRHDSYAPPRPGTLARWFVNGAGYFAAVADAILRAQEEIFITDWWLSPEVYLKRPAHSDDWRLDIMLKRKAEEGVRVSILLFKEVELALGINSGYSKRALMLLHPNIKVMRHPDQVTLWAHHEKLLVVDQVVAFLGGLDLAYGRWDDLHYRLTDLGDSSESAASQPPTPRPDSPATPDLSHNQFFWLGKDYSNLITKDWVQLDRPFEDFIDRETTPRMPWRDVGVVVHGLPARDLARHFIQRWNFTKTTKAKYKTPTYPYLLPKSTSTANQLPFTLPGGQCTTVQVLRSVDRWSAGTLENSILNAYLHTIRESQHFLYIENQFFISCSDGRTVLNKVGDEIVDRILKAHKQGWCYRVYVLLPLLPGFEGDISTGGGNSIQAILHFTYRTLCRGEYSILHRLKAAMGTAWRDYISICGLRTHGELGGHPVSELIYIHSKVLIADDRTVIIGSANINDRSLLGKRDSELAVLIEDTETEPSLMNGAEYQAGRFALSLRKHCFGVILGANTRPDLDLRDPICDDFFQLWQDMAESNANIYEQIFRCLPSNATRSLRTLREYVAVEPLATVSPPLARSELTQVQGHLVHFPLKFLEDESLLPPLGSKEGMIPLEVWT

C=CCc1ccc(O)c(-c2ccc(O)c(CC=C)c2)c1 [honokiol, Honokiol]
in vitro activity of PLD2 (PLD2): no significant effect
HIF2α expression (HIF2α): suppresses
